Source: publication PMC4839570, “Novel Anthra[1,2-c][1,2,5]Thiadiazole-6,11-Diones as Promising Anticancer Lead Compounds: Biological Evaluation, Characterization & Molecular Targets Determination” (PLoS ONE, 2016)
Where two headings read alike, the source gives them in different places.

Tests used:
Assay type in all cases: cell-based
SR = experiment: NCI-60 cytotoxicity screen
HOP-62 = experiment: NCI-60 cytotoxicity screen
NCI-H23 = experiment: NCI-60 cytotoxicity screen
NCI-H322M = experiment: NCI-60 cytotoxicity screen
SK-MEL-2 = experiment: NCI-60 cytotoxicity screen
UACC-257 = experiment: NCI-60 cytotoxicity screen
OVCAR-4 = experiment: NCI-60 cytotoxicity screen
OVCAR-8 = experiment: NCI-60 cytotoxicity screen
ACHN = experiment: NCI-60 cytotoxicity screen
SN12C = experiment: NCI-60 cytotoxicity screen
TK-10 = experiment: NCI-60 cytotoxicity screen
MCF7 = experiment: NCI-60 cytotoxicity screen
HBC-4 = experiment: JFCR-39 cytotoxicity screen
SF-539 = experiment: JFCR-39 cytotoxicity screen
HCT-116 = experiment: JFCR-39 cytotoxicity screen
NCI-H226 = experiment: JFCR-39 cytotoxicity screen
NCI-H522 = experiment: JFCR-39 cytotoxicity screen
NCI-H460 = experiment: JFCR-39 cytotoxicity screen
DMS114 = experiment: JFCR-39 cytotoxicity screen
RXF-631L = experiment: JFCR-39 cytotoxicity screen
ST-4 = experiment: JFCR-39 cytotoxicity screen
MKN45 = experiment: JFCR-39 cytotoxicity screen
MKN74 = experiment: JFCR-39 cytotoxicity screen
DU-145 = experiment: JFCR-39 cytotoxicity screen
[1] = tested on: JFCR 39 human cancer cell lines; experiment: JFCR-39 screen, means, ranges and selectivity over panels; settings: for GI50: Homo sapiens
Procedure: Both NSC745885 and NSC757963 satisfied the pre-determined threshold inhibition criteria of the NCI-60 One-Dose Screening, so they were tested against the panels of 60 cancer cell lines of NCI (NCI-60) and 39 cancer cell lines of JFCR (JFCR-39), each cell line was tested at five small doses of our compounds. Results are expressed as the 50% growth inhibition concentration (GI50), the 50% lethal concentration (LC50) and the total growth inhibition (TGI), compared to the values of untreated control cells.
To characterize the selectivity of NSC745885 and NSC757963 further among the different types of cancer, we determined their selectivity ratios towards each cell line subpanel used in the cytotoxicity experiments. […] The promising activity of this compound is evident from the small mean GI50 values. […] The strongest activity was towards the leukemia subpanel and the least one was towards the colon cancer subpanel. […] The strongest activity was towards the melanoma subpanel and the least one was towards the colon cancer subpanel.
All cell lines were published before.

[2] = Homo sapiens, Fig 7, read-out: mean log10 of the GI50 values (converted)
[3] = Homo sapiens, five-dose, read-out: GI50
[4] = Homo sapiens, five-dose, read-out: LC50 (the source's name)
[5] = Homo sapiens, read-out: LC50 (the source's name)

O=C1c2ccccc2C(=O)c2c1cc(Cl)c1nsnc21 [NSC757963]
GI50 (SR; [2]): 1.82 µM | GI50 (SR; [3]): 2.64 µM | CC50 (SR; [4]): > 100 µM | TGI (SR; five-dose): >100 µM | GI50 (HOP-62; [2]): 3.89 µM | GI50 (HOP-62; [3]): 4.95 µM | CC50 (HOP-62; [4]): 43.3 µM | TGI (HOP-62; five-dose): 17.3 µM | GI50 (NCI-H23; [2]): 3.63 µM | GI50 (NCI-H23; [3]): 3.62 µM | CC50 (NCI-H23; [4]): 74.6 µM | TGI (NCI-H23; five-dose): 17.2 µM | GI50 (NCI-H322M; [2]): 30.9 µM | GI50 (NCI-H322M; [3]): 18.6 µM | CC50 (NCI-H322M; [4]): 71 µM | TGI (NCI-H322M; five-dose): 36.3 µM | GI50 (SK-MEL-2; [2]): 2.09 µM | GI50 (SK-MEL-2; [3]): 2.21 µM | CC50 (SK-MEL-2; [4]): 37.7 µM | TGI (SK-MEL-2; five-dose): 5.77 µM | GI50 (UACC-257; [2]): 7.76 µM | GI50 (UACC-257; [3]): 14.5 µM | CC50 (UACC-257; [4]): 53.5 µM | TGI (UACC-257; five-dose): 27.8 µM | GI50 (OVCAR-4; [2]): 1.66 µM | GI50 (OVCAR-4; [3]): 1.46 µM | CC50 (OVCAR-4; [4]): 5.5 µM | TGI (OVCAR-4; five-dose): 2.83 µM | GI50 (OVCAR-8; [2]): 1.32 µM | GI50 (OVCAR-8; [3]): 2.39 µM | CC50 (OVCAR-8; [4]): > 100 µM | TGI (OVCAR-8; five-dose): 5.19 µM | GI50 (ACHN; [2]): 2 µM | GI50 (ACHN; [3]): 2 µM | CC50 (ACHN; [4]): 7.74 µM | TGI (ACHN; five-dose): 3.93 µM | GI50 (SN12C; [2]): 2.29 µM | GI50 (SN12C; [3]): 3.27 µM | CC50 (SN12C; [4]): 36.1 µM | TGI (SN12C; five-dose): 13.1 µM | GI50 (TK-10; [2]): 22.9 µM | GI50 (TK-10; [3]): 24.1 µM | CC50 (TK-10; [4]): 64.1 µM | TGI (TK-10; five-dose): 39.3 µM | GI50 (MCF7; [2]): 1.7 µM | GI50 (MCF7; [3]): 1.78 µM | CC50 (MCF7; [4]): 10.4 µM | TGI (MCF7; five-dose): 4.24 µM | TGI (HBC-4): 3.1 µM | GI50 (HBC-4; Homo sapiens, HBC4): 1.7 µM | CC50 (HBC-4; Homo sapiens, HBC4, read-out: LC50 (the source's name)): 5.6 µM | TGI (SF-539): 3.4 µM | GI50 (SF-539; Homo sapiens): 1.9 µM | CC50 (SF-539; [5]): 6.4 µM | TGI (HCT-116): 4.0 µM | GI50 (HCT-116; Homo sapiens): 1.9 µM | CC50 (HCT-116; [5]): 8.3 µM | TGI (NCI-H226): 17.0 µM | GI50 (NCI-H226; Homo sapiens): 4.2 µM | CC50 (NCI-H226; [5]): 51 µM | TGI (NCI-H522): 3.6 µM | GI50 (NCI-H522; Homo sapiens): 1.8 µM | CC50 (NCI-H522; [5]): 7.3 µM | TGI (NCI-H460): 26.0 µM | GI50 (NCI-H460; Homo sapiens): 10 µM | CC50 (NCI-H460; [5]): 64 µM | TGI (DMS114): 2.5 µM | GI50 (DMS114; Homo sapiens, DMS-114): 1 µM | CC50 (DMS114; Homo sapiens, DMS-114, read-out: LC50 (the source's name)): 6.1 µM | TGI (RXF-631L): 3.1 µM | GI50 (RXF-631L; Homo sapiens): 1.7 µM | CC50 (RXF-631L; [5]): 5.9 µM | TGI (ST-4): 3.9 µM | GI50 (ST-4; Homo sapiens): 2 µM | CC50 (ST-4; [5]): 7.4 µM | TGI (MKN45): 5.1 µM | GI50 (MKN45; Homo sapiens, MKN-45): 2 µM | CC50 (MKN45; Homo sapiens, MKN-45, read-out: LC50 (the source's name)): 17 µM | TGI (MKN74): 4.2 µM | GI50 (MKN74; Homo sapiens, MKN-74): 2.1 µM | CC50 (MKN74; Homo sapiens, MKN-74, read-out: LC50 (the source's name)): 8.4 µM | TGI (DU-145): 6.3 µM | GI50 (DU-145; Homo sapiens): 2.5 µM | CC50 (DU-145; [5]): 23 µM | selectivity ratios of the JFCR subpanels (for NSC745885 except melanoma) [1]: less than 3 | GI50 ([1]; JFCR Breast Cancer, read-out: Mean GI50 of subpanel): 1.72 µM | GI50 ([1]; JFCR CNS Cancer, read-out: Mean GI50 of subpanel): 2 µM | GI50 ([1]; JFCR Colon Cancer, read-out: Mean GI50 of subpanel): 5.94 µM | GI50 ([1]; JFCR Lung Cancer, read-out: Mean GI50 of subpanel): 5.86 µM | GI50 ([1]; JFCR Melanoma, read-out: Mean GI50 of subpanel): 1.9 µM | GI50 ([1]; JFCR Ovarian Cancer, read-out: Mean GI50 of subpanel): 2.08 µM | GI50 ([1]; JFCR Prostate Cancer, read-out: Mean GI50 of subpanel): 2.05 µM | GI50 ([1]; JFCR Renal Cancer, read-out: Mean GI50 of subpanel): 1.75 µM | GI50 ([1]; JFCR Stomach Cancer, read-out: Mean GI50 of subpanel): 1.97 µM | GI50 ([1]; all JFCR subpanels, read-out: mean GI50 values of the JFCR subpanels, range): 1.72 to 5.9 µM | GI50 ([1]; equivalent to MG-MID, read-out: Mean GI50 of all JFCR-39 cell line panels): 3.15 µM | GI50 ([1]; five-dose, read-out: JFCR-39 GI50 values, range over cell lines): 1 to 21 µM | Selectivity ratio ([1]; JFCR Breast Cancer): 1.83 | Selectivity ratio ([1]; JFCR CNS Cancer): 1.58 | Selectivity ratio ([1]; JFCR Colon Cancer): 0.53 | Selectivity ratio ([1]; JFCR Lung Cancer): 0.54 | Selectivity ratio ([1]; JFCR Melanoma): 1.66 | Selectivity ratio ([1]; JFCR Ovarian Cancer): 1.52 | Selectivity ratio ([1]; JFCR Prostate Cancer): 1.54 | Selectivity ratio ([1]; JFCR Renal Cancer): 1.8 | Selectivity ratio ([1]; JFCR Stomach Cancer): 1.6
